ChEMBL document CHEMBL1142541, “3D-QSAR studies of heterocyclic quinones with inhibitory activity on vascular smooth muscle cell proliferation using pharmacophore-based alignment” (Bioorg Med Chem, 2008)

Assay: Inhibition of PDGF-induced proliferation in RAOSMC
Design: species or system Rattus norvegicus
Compound `O=C1C(Cl)=C(Nc2ccccc2)C(=O)c2[nH]cnc21` has an IC50 of 5.5 µM and a pIC50 of 5.26. In the case of `O=C1C(Cl)=C(Nc2cccc(Br)c2)C(=O)c2[nH]cnc21`, the IC50 is reported as 1.6 µM. Work on `O=C1C(Br)=C(Nc2ccc(F)cc2)C(=O)c2[nH]cnc21` yielded an IC50 of 1 µM and a pIC50 of 6. Compound `O=C1C(Br)=C(Nc2cccc(I)c2)C(=O)c2[nH]cnc21` has an IC50 of 2.5 µM. With `Cc1nc2c([nH]1)C(=O)/C(=N/c1ccc(F)c(F)c1F)C(Cl)=C2O` the IC50 was 0.8 µM. For `Cc1nc2c([nH]1)C(=O)/C(=N/c1ccccc1)C(Cl)=C2O`, the IC50 was 0.8 µM. Work on `Cc1ccc(NC2=C(Br)C(=O)c3nc[nH]c3C2=O)cc1` yielded an IC50 of 1 µM. Work on `Cc1nc2c([nH]1)C(=O)/C(=N/c1cccc(Br)c1)C(Cl)=C2O` yielded an IC50 of 1 µM. Work on `Cc1nc2c([nH]1)C(=O)/C(=N/c1ccc(F)cc1)C(Cl)=C2O` yielded an IC50 of 3 µM. `O=C1C(Cl)=C(Nc2ccccc2)C(=O)c2[nH]c(C(F)(F)F)nc21` gave an IC50 of 50 µM. `Cc1nc2c([nH]1)C(=O)/C(=N/c1cccc(Cl)c1)C(Cl)=C2O` showed an IC50 of 0.9 µM. For `O=C1C(Cl)=C(Nc2cccc(Cl)c2)C(=O)c2[nH]cnc21`, the IC50 was 1.4 µM. In the case of `O=C1C(Cl)=C(Nc2cccc(I)c2)C(=O)c2[nH]cnc21`, the IC50 is reported as 1.3 µM. With `O=C1C(Br)=C(Nc2ccc(Cl)cc2)C(=O)c2[nH]cnc21` the IC50 was 4 µM. Compound `O=C1C(Br)=C(Nc2ccccc2)C(=O)c2[nH]cnc21` has an IC50 of 1.1 µM. In the case of `O=C1C(Cl)=C(Nc2ccc(I)cc2)C(=O)c2[nH]c(C(F)(F)F)nc21`, the IC50 is reported as 25 µM. Compound `O=C1C(Cl)=C(Nc2ccc(Cl)cc2)C(=O)c2[nH]c(C(F)(F)F)nc21` has an IC50 of 15 µM and a pIC50 of 4.82. Compound `Cc1ccc(NC2=C(Cl)C(=O)c3nc(C(F)(F)F)[nH]c3C2=O)cc1` has an IC50 of 40 µM. Work on `O=C1C(Cl)=C(Nc2ccc(I)cc2)C(=O)c2[nH]cnc21` yielded an IC50 of 1.3 µM and a pIC50 of 5.89. For `O=C1C(Cl)=C(Nc2ccc(F)cc2)C(=O)c2[nH]c(C(F)(F)F)nc21`, the IC50 was 12 µM. With `Cc1nc2c([nH]1)C(=O)/C(=N/c1ccc(I)cc1)C(Cl)=C2O` the IC50 was 1 µM. Work on `O=C1C(Cl)=C(Nc2ccc(F)cc2)C(=O)c2[nH]cnc21` yielded an IC50 of 1.2 µM. `O=C1C(Cl)=C(Nc2ccc(OC(F)(F)F)cc2)C(=O)c2[nH]c(-c3ccccn3)nc21` gave an IC50 of 6 µM. With `O=C1C(Cl)=C(Nc2ccc(F)cc2)C(=O)c2[nH]c(-c3ccncc3)nc21` the IC50 was 50 µM. Compound `O=C1C=C(Nc2ccc(Br)cc2)C(=O)c2[nH]c(-c3ccccn3)nc21` has an IC50 of 12 µM. For `O=C1C=C(Nc2ccc(Cl)cc2)C(=O)c2[nH]c(-c3ccccn3)nc21`, the IC50 was 13 µM. For `O=C1C=C(Nc2ccc(I)cc2)C(=O)c2[nH]c(-c3ccccn3)nc21`, the IC50 was 20 µM. Compound `Cc1nc2c([nH]1)C(=O)/C(=N/c1ccc(F)cc1F)C(Cl)=C2O` has an IC50 of 1.2 µM. Work on `Cc1ccc(NC2=C(Cl)C(=O)c3nc[nH]c3C2=O)cc1` yielded an IC50 of 1.4 µM. Compound `O=C1C(Cl)=C(Nc2ccc(C(F)(F)F)cc2)C(=O)c2[nH]cnc21` has an IC50 of 2.5 µM and a pIC50 of 5.6. With `O=C1C(Cl)=C(Nc2ccc(C(F)(F)F)cc2)C(=O)c2[nH]c(C(F)(F)F)nc21` the IC50 was 20 µM. `Cc1ccc(NC2=C(Cl)C(=O)c3nc(C)[nH]c3C2=O)cc1` showed an IC50 of 0.8 µM. Compound `Cc1nc2c([nH]1)C(=O)/C(=N/c1ccc(Cl)cc1)C(Cl)=C2O` has an IC50 of 2.8 µM and a pIC50 of 5.55. In the case of `COc1ccc(NC2=C(Cl)C(=O)c3nc(-c4ccncc4)[nH]c3C2=O)cc1`, the IC50 is reported as 50 µM and the pIC50 is reported as 4.3. For `O=C1C(Cl)=C(Nc2ccc(F)cc2)C(=O)c2[nH]c(-c3cccnc3)nc21`, the IC50 was 21 µM. For `O=C1C(Cl)=C(Nc2ccc(F)c(F)c2)C(=O)c2[nH]cnc21`, the IC50 was 1.1 µM. Work on `Cc1nc2c([nH]1)C(=O)/C(=N/c1ccc(Cl)cc1Cl)C(Cl)=C2O` yielded an IC50 of 0.8 µM. `O=C1C(Br)=C(Nc2ccc(C(F)(F)F)cc2)C(=O)c2[nH]cnc21` gave an IC50 of 3.1 µM. With `Cc1nc2c([nH]1)C(=O)/C(=N/c1cccc(Cl)c1Cl)C(Cl)=C2O` the IC50 was 0.6 µM. In the case of `Cc1nc2c([nH]1)C(=O)/C(=N/c1ccc(C(F)(F)F)cc1)C(Cl)=C2O`, the IC50 is reported as 0.6 µM. In the case of `Cc1cccc(NC2=C(Cl)C(=O)c3nc(-c4ccncc4)[nH]c3C2=O)c1`, the IC50 is reported as 60 µM. In the case of `O=C1C=C(Nc2ccc(OC(F)(F)F)cc2)C(=O)c2[nH]c(-c3ccccn3)nc21`, the IC50 is reported as 20 µM. Compound `O=C1C(Cl)=C(Nc2cccc(Cl)c2)C(=O)c2[nH]c(-c3ccccn3)nc21` has an IC50 of 3.5 µM. For `Cc1ccc(NC2=C(Cl)C(=O)c3nc(-c4cccnc4)[nH]c3C2=O)cc1`, the IC50 was 45 µM and the pIC50 was 4.35. Compound `O=C1C(Cl)=C(Nc2cccc(F)c2)C(=O)c2[nH]c(-c3ccncc3)nc21` has an IC50 of 19 µM. `O=C1C(Cl)=C(Nc2cccc(Br)c2)C(=O)c2[nH]c(-c3ccncc3)nc21` showed an IC50 of 20 µM and a pIC50 of 4.7. `CCOc1ccc(NC2=C(Cl)C(=O)c3nc(-c4cccnc4)[nH]c3C2=O)cc1` showed an IC50 of 42 µM. `O=C1C(Cl)=C(Nc2ccc(OC(F)(F)F)cc2)C(=O)c2nc(-c3ccccn3)c(-c3ccccn3)nc21` gave an IC50 of 1 µM. For `O=C1C(Cl)=C(Nc2ccc(F)cc2F)C(=O)c2[nH]cnc21`, the IC50 was 2.7 µM. Compound `Cc1nc2c(nc1C)C(=O)C(Nc1ccc(F)cc1)=CC2=O` has an IC50 of 3.1 µM and a pIC50 of 5.51. `Cc1nc2c(nc1C)C(=O)C(Nc1ccc(Cl)cc1)=CC2=O` gave an IC50 of 3.3 µM. In the case of `Cc1nc2c(nc1C)C(=O)C(Nc1ccc(Br)cc1)=CC2=O`, the IC50 is reported as 1.1 µM. With `O=C1C(Cl)=C(Nc2ccc(Br)cc2)C(=O)c2[nH]cnc21` the IC50 was 2 µM. Work on `O=C1C(Cl)=C(Nc2ccc(Cl)cc2)C(=O)c2nc(-c3ccccn3)c(-c3ccccn3)nc21` yielded an IC50 of 1.5 µM and a pIC50 of 5.82. With `O=C1C(Cl)=C(Nc2ccc(O)cc2)C(=O)c2nc(-c3ccccn3)c(-c3ccccn3)nc21` the IC50 was 5.5 µM and the pIC50 was 5.26. `Cc1nc2c([nH]1)C(=O)C(Nc1ccc(OC(F)(F)F)cc1)=C(Cl)C2=O` showed an IC50 of 3 µM. Work on `O=C1C(Cl)=C(Nc2cc(F)c(F)c(F)c2)C(=O)c2nc(-c3ccccn3)c(-c3ccccn3)nc21` yielded an IC50 of 1.2 µM. `N#Cc1ccc(NC2=C(Cl)C(=O)c3nc[nH]c3C2=O)cc1` gave an IC50 of 2.7 µM. `Cc1nc2c(nc1C)C(=O)C(Nc1cc(F)cc(F)c1)=CC2=O` showed an IC50 of 4.5 µM. In the case of `O=C1C(Cl)=C(Nc2ccccc2)C(=O)c2nc(-c3ccccn3)c(-c3ccccn3)nc21`, the IC50 is reported as 3.1 µM. `Cc1nc2c(nc1C)C(=O)C(Nc1ccc(Cl)c(Cl)c1)=CC2=O` gave an IC50 of 3.8 µM. For `O=C1C(Cl)=C(Nc2ccc(F)cc2)C(=O)c2nc(-c3ccccn3)c(-c3ccccn3)nc21`, the IC50 was 1 µM. Compound `O=C1C(Br)=C(Nc2cccc(Br)c2)C(=O)c2[nH]cnc21` has an IC50 of 5.3 µM. For `O=C1C(Cl)=C(Nc2ccc(OC(F)(F)F)cc2)C(=O)c2[nH]cnc21`, the IC50 was 2.5 µM. For `O=C1C(Cl)=C(Nc2cccc(Br)c2)C(=O)c2[nH]c(-c3ccccn3)nc21`, the IC50 was 20 µM. `CCOc1ccc(NC2=C(Cl)C(=O)c3nc(-c4ccncc4)[nH]c3C2=O)cc1` gave an IC50 of 75 µM. In the case of `CCOc1ccc(NC2=CC(=O)c3nc(C)c(C)nc3C2=O)cc1`, the IC50 is reported as 1.5 µM. In the case of `O=C1C(Br)=C(Nc2cccc(C(F)(F)F)c2)C(=O)c2[nH]cnc21`, the IC50 is reported as 3 µM. For `CCc1ccc(NC2=C(Cl)C(=O)c3nc(C)[nH]c3C2=O)cc1`, the IC50 was 3 µM and the pIC50 was 5.52. `O=C1C(Cl)=C(Nc2ccccc2F)C(=O)c2[nH]cnc21` showed an IC50 of 1.7 µM and a pIC50 of 5.77. Work on `O=C1C(Cl)=C(Nc2cccc(Cl)c2)C(=O)c2[nH]c(-c3ccncc3)nc21` yielded an IC50 of 31 µM. In the case of `O=C1C(Cl)=C(Nc2ccc(Cl)c(Cl)c2)C(=O)c2[nH]c(-c3ccncc3)nc21`, the IC50 is reported as 13 µM. Work on `O=C1C(Cl)=C(Nc2ccc(Cl)c(Cl)c2)C(=O)c2nc(-c3ccccn3)c(-c3ccccn3)nc21` yielded an IC50 of 1 µM. `O=C1C(Cl)=C(Nc2ccc(Cl)c(F)c2)C(=O)c2[nH]c(-c3ccncc3)nc21` showed an IC50 of 25 µM and a pIC50 of 4.6. With `COc1ccc(NC2=C(Cl)C(=O)c3nc(-c4ccccn4)c(-c4ccccn4)nc3C2=O)cc1` the IC50 was 3.5 µM and the pIC50 was 5.46. In the case of `O=C1C(Br)=C(Nc2cccc(Cl)c2)C(=O)c2[nH]cnc21`, the IC50 is reported as 3 µM. `O=C1C(Cl)=C(Nc2ccc(Br)cc2)C(=O)c2[nH]c(-c3ccncc3)nc21` showed an IC50 of 60 µM. With `O=C1C(Cl)=C(Nc2ccc(Cl)cc2)C(=O)c2[nH]c(-c3cccnc3)nc21` the IC50 was 20 µM. `O=C1C(Cl)=C(Nc2ccc(Br)cc2)C(=O)c2[nH]c(-c3ccccn3)nc21` showed an IC50 of 6.5 µM. `O=C1C(Cl)=C(Nc2ccc(Cl)cc2)C(=O)c2[nH]c(-c3ccccn3)nc21` showed an IC50 of 12 µM. `CCOc1ccc(NC2=CC(=O)c3nc(-c4ccccn4)[nH]c3C2=O)cc1` showed an IC50 of 6.5 µM.
